Data published in patent EP3057951B1, “METHYLENE LINKED QUINOLINYL MODULATORS OF ROR-GAMMA-T” (Janssen Pharmaceutica NV, priority 2013, dated 2015).
pIC50, pKd: −log10 of the molar value. Where two headings read alike, the source gives them in different places.

What was measured:
[1] = biological target: T1, wild type human RORγt ligand binding domain (RORyt LBD) (Homo sapiens, UniProt P51449); experiment: RORγt ThermoFluor assay (thermal shift, binding affinity KD)
T1 construct: His-tag (N); TurboTEV protease cleavage site (ENLYFQG) (N); made in house; host or cells: E. coli (pHIS1, modified pET vector)
T1 sequence (P51449 258-518): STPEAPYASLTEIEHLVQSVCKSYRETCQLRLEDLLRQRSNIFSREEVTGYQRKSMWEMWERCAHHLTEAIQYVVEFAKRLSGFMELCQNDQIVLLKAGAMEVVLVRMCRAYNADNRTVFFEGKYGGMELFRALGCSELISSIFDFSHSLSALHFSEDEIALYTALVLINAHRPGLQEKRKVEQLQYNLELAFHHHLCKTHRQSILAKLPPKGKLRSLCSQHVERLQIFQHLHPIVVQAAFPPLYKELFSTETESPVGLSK

[2] = biological target: T2, wild type human RORγt LBD (Homo sapiens, UniProt P51449); experiment: RORγt (LBD) Reporter Assay (GAL4-luciferase, HEK293T cells); format: cell-based; details: for RORγt (LBD) Reporter Assay, % inhibition @ 6 µM: 6 µM compound concentration; for inhibition at 6 µM: HEK-293T, read-out: RORγt (LBD) Reporter Assay, % inhibition @ 6 µM, 6 µM compound concentration
T2 construct: expressed in transfected cells; host or cells: HEK293T
T2 sequence (P51449 258-518): T1 sequence (P51449 258-518)

[3] = HEK293T cells, value after the comma with ∼, > or < could not be included in the average

SMILES | pKd [1] | RORγt (LBD) Reporter Assay, % inhibition @ 6 µM ([2]; HEK293T cells) [%] | pIC50 ([2]; HEK293T cells) | inhibition at 6 µM ([2]; HEK293T cells) [%] | pIC50 [2, 3] | inhibition at 6 µM [2] [%] | RORγt (LBD) Reporter Assay, % inhibition @ 6 µM [2] [%]
COc1nc2ccc(C(O)(c3ccc(F)cc3)C3CCN(C(C)=O)CC3)cc2c(Cl)c1Cc1ccc(-n2cccn2)cc1 (single isomer, unassigned) [Example 157c, 1-(4-((3-(4-(1H-Pyrazol-1-yl)benzyl)4-chloro-2-methoxyquinolin-6-yl)(4-fluorophenyl)(hydroxy)methyl)piperidin-1-yl)ethanone] | 6.96 | 99 | 6.80 |  |  |  | 
COc1nc2ccc(C(O)(c3ccc(F)cc3)c3cccnc3)cc2c(Cl)c1Cc1ccc(-n2cccn2)cc1 (single isomer, unassigned) [Example 158b, (3-(4-(1H-Pyrazol-1-yl)benzyl)-4-chloro-2-methoxyquinolin-6-yl)(4-fluorophenyl)(pyridin-3-yl)methanol] | 6.85 |  | 6.77 | 107 |  |  | 
COc1nc2ccc(C(O)(c3ccc(F)cc3)c3cccnc3)cc2c(Cl)c1Cc1ccc(-n2cccn2)cc1 (single isomer, unassigned) [Example 158c, (3-(4-(1H-Pyrazol-1-yl)benzyl)-4-chloro-2-methoxyquinolin-6-yl)(4-fluorophenyl)(pyridin-3-yl)methanol] | 8.11 | 100 | 6.89 |  |  |  | 
COc1ccc(C(O)(c2cccnc2)c2ccc3nc(OC)c(Cc4ccc(-n5cccn5)cc4)c(Cl)c3c2)cc1OC (single isomer, unassigned) [Example 159b, (3-(4-(1H-Pyrazol-1-yl)benzyl)-4-chloro-2-methoxyquinolin-6-yl)(3,4-dimethoxyphenyl)(pyridin-3-yl)methanol] | 6.29 |  | 6.43 | 107 |  |  | 
COc1ccc(C(O)(c2cccnc2)c2ccc3nc(OC)c(Cc4ccc(-n5cccn5)cc4)c(Cl)c3c2)cc1OC (single isomer, unassigned) [Example 159c, (3-(4-(1H-Pyrazol-1-yl)benzyl)-4-chloro-2-methoxyquinolin-6-yl)(3,4-dimethoxyphenyl)(pyridin-3-yl)methanol] | 7.85 | 105 | 7.29 |  |  |  | 
COc1nc2ccc(C(O)(c3ccc(F)cc3)c3cncn3C)cc2c(Cl)c1Cc1ccc(-n2cccn2)cc1 (single isomer, unassigned) [Example 160b, (3-(4-(1H-Pyrazol-1-yl)benzyl)-4-chloro-2-methoxyquinolin-6-yl)(4-fluorophenyl)(1-methyl-1H-imidazol-5-yl)methanol] | 6.34 |  | 6.17 | 105 |  |  | 
COc1nc2ccc(C(O)(c3ccc(F)cc3)c3cncn3C)cc2c(Cl)c1Cc1ccc(-n2cccn2)cc1 (single isomer, unassigned) [Example 160c, (3-(4-(1H-Pyrazol-1-yl)benzyl)-4-chloro-2-methoxyquinolin-6-yl)(4-fluorophenyl)(1-methyl-1H-imidazol-5-yl)methanol] | 7.92 | 98 | 7.33 |  |  |  | 
COc1nc2ccc(C(O)(c3cccnc3)c3ccc(Cl)c(Cl)c3)cc2c(Cl)c1Cc1ccc(-n2cccn2)cc1 (single isomer, unassigned) [Example 161b, (3-(4-(1H-Pyrazol-1-yl)benzyl)-4-chloro-2-methoxyquinolin-6-yl)(3,4-dichlorophenyl)(pyridin-3-yl)methanol] | 6.55 |  | 6.80 | 108 |  |  | 
COc1nc2ccc(C(O)(c3cccnc3)c3ccc(Cl)c(Cl)c3)cc2c(Cl)c1Cc1ccc(-n2cccn2)cc1 (single isomer, unassigned) [Example 161c, (3-(4-(1H-Pyrazol-1-yl)benzyl)-4-chloro-2-methoxyquinolin-6-yl)(3,4-dichlorophenyl)(pyridin-3-yl)methanol] | 7.96 | 102 | 7.11 |  |  |  | 
COc1nc2ccc(C(O)(c3cncn3C)C3CCOCC3)cc2c(C#N)c1Cc1ccc(-n2cccn2)cc1 (stereo not drawn) [Example 2b, 3-(4-(1H-Pyrazol-1-yl)benzyl)-6-(hydroxy(1-methyl-1H-imidazol-5-yl)(tetrahydro-2H-pyran-4-yl)methyl)-2-methoxyquinoline-4-carbonitrile] | 6.96 |  |  |  | 6.89 | 101 | 
COc1nc2ccc(C(O)(c3cnnn3C)c3cnnn3C)cc2c(Cl)c1Cc1ccc(C(F)(F)F)cc1 [Example 12, (4-Chloro-2-methoxy-3-(4-(trifluoromethyl)benzyl)quinolin-6-yl)bis(1-methyl-1H-1,2,3-triazol-5-yl)methanol] | 9.15 |  |  |  | 8.51 | 99 | 
COc1nc2ccc(C(O)(c3ccc(C#N)cc3)c3cncn3C)cc2c(Cl)c1Cc1ccc(-n2cncn2)cc1 (stereo not drawn) [Example 14a, 4-((3-(4-(1H-1,2,4-Triazol-1-yl)benzyl)4-chloro-2-methoxyquinolin-6-yl)(hydroxy)(1-methyl-1H-imidazol-5-yl)methyl)benzonitrile] | 7.77 |  |  |  | 7.38 | 105 | 
COc1nc2ccc(C(O)(c3ccccc3)C3CCN(C(C)=O)CC3)cc2c(Cl)c1Cc1ccc(-n2ccnc2)cc1 (stereo not drawn) [Example 16a, 1-(4-((3-(4-(1H-Imidazol-1-yl)benzyl)4-chloro-2-metboxyquinolin-6-yl)(hydroxy)(phenyl)methyl)piperidin-1-yl)ethanone] | 8.08 |  |  |  | 8.01 | 101 | 
COc1nc2ccc(C(O)(c3ccccc3)C3CCN(C(C)=O)CC3)cc2c(Cl)c1Cc1ccc(-n2ccnc2)cc1 (stereo not drawn) [Example 16b] | 7.48 |  |  |  | 7.04 |  | 96
COc1nc2ccc(C(O)(c3ccccc3)C3CCN(C(C)=O)CC3)cc2c(Cl)c1Cc1ccc(-n2ccnc2)cc1 (stereo not drawn) [Example 16c] | 8.34 |  |  |  | 7.70 |  | 100
COc1nc2ccc(C(O)(c3ccc(C)nc3C)c3cnnn3C)cc2c(Cl)c1Cc1ccc(-n2cccn2)cc1 (stereo not drawn) [Example 17a, (3-(4-(1H-Pyrazol-1-yl)benzyl)4-chloro-2-methoxyquinolin-6-yl)(2,6-dimethylpyridin-3-yl)(1-methyl-1H-1,2,3-triazol-5-yl)methanol] | 9.04 |  |  |  | 8.00 | 99 | 
COc1nc2ccc(C(O)(c3ccccc3)C3CCN(C(C)=O)CC3)cc2c(Cl)c1Cc1ccc(-n2cncn2)cc1 (stereo not drawn) [Example 18a, 1-(4-((3-(4-(1H-1,2,4-Triazol-1-yl)benzyl)4-chloro-2-methoxyquinolin-6-yl)(hydroxy)(phenyl)methyl)piperidin-1-yl)ethanone] | 7.85 |  |  |  | 7.34 | 99 | 
COc1nc2ccc(C(O)(c3ccc(C)nc3C)c3cnnn3C)cc2c(Cl)c1Cc1ccc(C)cc1 (stereo not drawn) [Example 20a, (4-Chloro-2-methoxy-3-(4-methylbenzyl)quinolin-6-yl)(2,6-dimethylpyridin-3-yl)(1-methyl-1H-1,2,3-triazol-5-yl)methanol] | 8.96 |  |  |  | 7.40 | 91 | 
COc1nc2ccc(C(O)(c3sc(C)nc3C)c3cnnn3C)cc2c(Cl)c1Cc1ccc(-n2cccn2)cc1 (stereo not drawn) [Example 21a, (3-(4-(1H-Pyrazol-1-yl)benzyl)4-chloro-2-methoxyquinolin-6-yl)(2,4-dimethylthiazol-5-yl)(1-methyl-1H-1,2,3-triazol-5-yl)methanol] | 9.51 |  |  |  | 8.22 | 101 | 
CCc1nc2ccc(C(O)(c3ccc(C)nc3C)c3cnnn3C)cc2c(Cl)c1Cc1ccc(C(F)(F)F)cc1 (stereo not drawn) [Example 23a, (4-Chloro-2-ethyl-3-(4-(trifluoromethyl)benzyl)quinolin-6-yl)(2,6-dimethylpyridin-3-yl)(1-methyl-1H-1,2,3-triazol-5-yl)methanol] | 9.85 |  |  |  | 7.74 | 99 | 
COc1nc2ccc(C(O)(c3ccc(C)nc3C)c3cnnn3C)cc2c(Cl)c1Cc1ccc(N(C)C)cc1 (stereo not drawn) [Example 24a, (4-Chloro-3-(4-(dimethylamino)benzyl)-2-methoxyquinolin-6-yl)(2,6-dimethylpyridin-3-yl)(1-methyl-1H-1,2,3-triazol-5-yl)methanol] | 8.82 |  |  |  | 8.34 | 100 | 
Cc1nc2ccc(C(O)(c3ccc(C(F)(F)F)nc3)c3cncn3C)cc2c(Cl)c1Cc1ccc(C(F)(F)F)cc1 (stereo not drawn) [Example 26a, (4-Chloro-2-methyl-3-(4-(trifluoromethyl)benzyl)quinolin-6-yl)(1-methyl-1H-imidazol-5-yl)(6-(trifluoromethyl)pyridin-3-yl)methanol] | 8.51 |  |  |  | 7.48 | 101 | 
CC(=O)N1CCC(C(O)(c2ccccc2)c2ccc3nc(C)c(Cc4ccc(C(F)(F)F)cc4)c(Cl)c3c2)CC1 (stereo not drawn) [Example 27a, 1-(4-((4-Chloro-2-methyl-3-(4-(trifluoromethyl)benzyl)quinolin-6-yl)(hydroxy)(phenyl)methyl)piperidin-1-yl)ethanone] | 8.85 |  |  |  | 8.36 | 101 | 
Cc1ccc(C(O)(c2ccc3nc(C)c(Cc4ccc(C(F)(F)F)cc4)c(Cl)c3c2)c2cnnn2C)c(C)n1 (stereo not drawn) [Example 28a, (4-Chloro-2-methyl-3-(4-(trifluoromethyl)benzyl)quinolin-6-yl)(2,6-dimethylpyridin-3-yl)(1-methyl-1H-1,2,3-triazol-5-yl)methanol] | 9.60 |  |  |  | 7.96 | 99 | 
